The results in this text go back to patent US20210046143A1, “METHOD FOR TREATMENT OF THE HUMAN BODY BY THERAPY BY ADMINISTERING A COMPOSITION COMPRISING A PLANT EXTRACT OF THE SPECIE HEDYCHIUM CORONARIUM” (Societe D'exploitation De Produits Pour Les Industries …, priority 2016, published 2021).

One assay concerns IL-8. Description: IL-8 release by human skin explants, pollution model (BaP), ELISA. Type of assay: cell-based. As to conditions: PMA 1 μg/ml systemic, 24 h, without pollution. As for the experimental part: b)—The product was systemically applied for 24 hours, on human skin explants (diameter of 8 mm), provided by Biopredic™ International (Rennes), which derived from mammary plastic surgery (person);
c)—The product was then applied again during pollution, for another 24 hours. Said pollution was induced in this model by application of an environmental pollutant, benzo(a)pyrene (3,4-benzopyrene/BaP) as systemic treatment, i.e. in the culture medium. This pollutant induces IL-8 release (SEPhRA results).
a)—A 2% (DE) HCR extract is diluted in the culture medium to obtain a 0.1% (DE) HCR extract, which is used as the test compound.
b)—Said HCR extract was systemically applied on the skin explants as a twenty-four hours pre-treatment. […]
e)—In order to validate the IL-8 titration, an additional condition was evaluated, i.e. stimulation with a reference pro-inflammatory molecule PMA (Phorbol 12-myristate 13-acetate, Sigma P8139), at 1 μg/ml. […]
d)—The inflammatory cytokine IL-8 was then measured out with a commercial kit from Bio-Techne/R&Dsystems (D8000C), which is an ELISA method. […] Titration raw data were obtained by measuring the absorbance or the optical density (OD) at 450 nm wavelength, with 570 nm as a reference.
e)—The concentrations of IL-8 measured in the samples were determined by using a concentration range of an IL-8 standard. […]
(In an ELISA, binding on a coated surface is turned into a signal by an enzyme label.)

Assay [1] concerns murine B16 melanocytes (B16-F0 line). Description: Melanin titration in B16 melanocytes (melanogenesis). Type of assay: cell-based. Conditions: Mus musculus, B16F0; kojic acid 1 mM; read-out: Inhibition of the melanin release in the culture medium. As to the method:
• 1)—Background Information The aim of this study is to evaluate the effects of HCR extracts on melanogenesis in an in vitro model of murine B16 melanocytes. Cells used in this study were murine melanocytes (B16-F0 line, LGC standards, ATCC-CRL-6322) extracted from murine skin. This cells lines synthesizes a great quantity of melanin which is released in the culture media (so called supernatants), so a titration by spectrophotometry is easy to achieve. These melanocytes were cultured as monolayers; the test compounds were applied during seventy two hours and the synthesized melanin was then released and measured out in the supernatants. A XTT assay was previously performed, to check the cells viability, in order to determine the concentrations to be tested, as described in Example 2. • 2)—Dose Determination (CytotoxicityNiability Check by XTT Assay) and Evaluated Test Compound
B16 melanocytes were seeded in 24-wells plates. […]
Cells were seeded into 24-wells plates (at a cell density of […], i.e. 31,250 B16/cm^2), in the same medium as previously described, one day before treatment (incubation at 37° C./5% CO2). […] After 48 or 72 hours of treatment, the supernatants were homogenized and aliquots were transferred to 96-well plates for spectrophotometry reading at 492 nm wavelength (reading in duplicate). […]

Where only a bound is given, the exact number is not on record here.

For the molecule `CCCCCCCCCCCCCC(=O)O[C@@H]1[C@@H](C)[C@@]2(O)[C@@H](C=C(CO)C[C@]3(O)C(=O)C(C)=C[C@@H]23)[C@@H]2C(C)(C)[C@]12OC(C)=O` [PMA, Phorbol 12-myristate 13-acetate], the “IL-8 release, change compared to untreated/unpolluted control” value in the assay with IL-8 is given as “+224%”.

`O=c1cc(CO)occ1O` [kojic acid]: in assay [1], the inhibition (in general, the percentage by which the read-out fell short of the control) at 1000 µM was more than 90%.
